We go through six compounds from US4299820A, “Therapeutic process employing amides of L and DL phenylglycines” (Pfizer Inc., priority 1977, dated 1981).

Molecules are shown by their SMILES. Square brackets hold non-standard residues; d marks the D form. Peptide text beside a SMILES is read from it. Hpg = N[C@H](C(=O)O)c1ccc(O)cc1

In assay [1] the test system is diaphragm tissue from fat-fed rats. Kind of assay: Pyruvate oxidation by diaphragm tissue from fat-fed rats in vitro (14C from labelled pyruvate into CO2). The arrangement: species or system rat. As to conditions: diaphragm tissue from rats fed on a high fat diet. On the procedure: Representative compounds of the formula (II) have been tested for their ability to increase the oxidation of glucose and/or pyruvate as follows:
Diaphragm tissue is obtained from rats fed on a high fat diet similar to `Diet B` described by Zaragoza and Felber [Horm.Metab. Res., 2, 323 (1970)]. Pyruvate oxidation by such tissue is assessed by measurement of the rate of incorporation of carbon-14 from carbon-14-labelled pyruvate into carbon dioxide in vitro, as described by Bringolf [Eur. J. Biochem., 26, 360 (1972)]. The rate of pyruvate oxidation is depressed by 50%-75% compared with that by diaphragm tissue from rats fed on a normal diet. When the compounds of the formula (II) are added to the medium, they are found to stimulate pyruvate oxidation by diaphragm tissue from fat-fed rats in a dose dependent manner.

Assay [2] has as its system pyruvate dehydrogenase enzyme. Kind of assay: Proportion of active form of pyruvate dehydrogenase (PDHa/PDHt) in hearts of fat-fed rats after treatment. The note with it: fat-fed rat heart, after 11/2 hours. The class given is in vivo. On the procedure: The ability of compounds of formula (II) to increase the proportion of the active form of the pyruvate dehydrogenase enzyme has been measured in the following test:
Rats fed on a high fat diet as in the previous test, are treated either with placebo or with the compound of formula (II) by subcutaneous or intravenous injection or by oral administration. After 11/2 hours the rat hearts are removed and homogenized under conditions which minimize changes in the proportion of the pyruvate dehydrogenase enzyme (PDHt) which is present in the active form, as described by Whitehouse and Randle [Biochem. J., 134, 651 (1973)]. The total amount of the enzyme present (PDHt) and the amount which is present in the active form (PDHa) are assessed by a method similar to that described by Taylor et al. [J. Biol. Chem., 248, 73 (1973)]. The fat-feeding process is found to depress the ratio PDHa/PDHt from a normal value of about 0.7 to a value in the range from 0.05 to 0.2. Treatment of fat-fed rats with the compounds of formula (II) either parenterally or orally, increases this ratio in a dose-dependent manner.

For the compound `Br.COC(=O)[C@@H](NC(=O)[C@@H](N)c1ccc(O)cc1)c1ccc(O)cc1` [Example 1, L,L-Methyl N-[2-(4-hydroxyphenyl)glycyl]-2-(4-hydroxyphenyl)glycinate hydrobromide] (H-[Hpg]-[Hpg]-OMe), in assay [1] (Concentration 0.25 mM), the “% Stimulation (pyruvate oxidation)” value turned out to be 23%. Also, the “PDHa/PDHt ratio, compound” value in assay [2] (Dose 1.2 mmoles/kg p.o.) was 1.00.

For `Br.Br.N[C@H](C(=O)N[C@H](C(=O)O)c1ccc(O)cc1)c1ccc(O)cc1.N[C@H](C(=O)N[C@H](C(=O)O)c1ccc(O)cc1)c1ccc(O)cc1.O` [Example 3, L,L-N-[2-(4-hydroxyphenyl)glycyl]-2-(4-hydroxyphenyl)glycine hydrobromide hemihydrate] (H-[Hpg]-[Hpg]-OH), the “% Stimulation (pyruvate oxidation)” value in assay [1] (Concentration 0.25 mM) worked out at 39%. Also, the “PDHa/PDHt ratio, compound” value in assay [2] (Dose 1.2 mmoles/kg p.o.) was found to be 0.75.

Take `Br.COC(=O)[C@@H](NC(=O)[C@H](C)N)c1ccc(O)cc1` [Example 7, L,L-Methyl N-alanyl-2-(4-hydroxyphenyl)glycinate hydrobromide] (H-Ala-[Hpg]-OMe): in assay [1] (Concentration 2 mM), the “% Stimulation (pyruvate oxidation)” value came to 61%.

With `Br.C[C@H](N)C(=O)N[C@H](C(=O)O)c1ccc(O)cc1` [Example 8, L,L-N-Alanyl-2-(4-hydroxyphenyl)glycine hydrobromide] (H-Ala-[Hpg]-OH), the “% Stimulation (pyruvate oxidation)” value in assay [1] (Concentration 2 mM) is recorded as 23%. In addition, the “PDHa/PDHt ratio, compound” value is given as 0.56 in assay [2] (Dose 0.6 mmoles/kg p.o.) and 0.77 in assay [2] (Dose 0.6 mmoles/kg s.c.).

`Br.CC[C@H](C)[C@H](N)C(=O)N[C@H](C(=O)OC)c1ccc(O)cc1.O` [Example 9, L,L-Methyl N-isoleucyl-2-(4-hydroxyphenyl)glycinate hydrobromide monohydrate] (H-Ile-[Hpg]-OMe): the “% Stimulation (pyruvate oxidation)” value in assay [1] (Concentration 2 mM) came to 35%. In addition, the results for the “PDHa/PDHt ratio, compound” value in assay [2] (Dose 1.2 mmoles/kg p.o.) and in assay [2] (Dose 1.2 mmoles/kg s.c.) were 0.24 and 0.48, respectively.

For the compound `Br.CC[C@H](C)[C@H](N)C(=O)N[C@H](C(=O)O)c1ccc(O)cc1` [Example 10, L,L-N-isoleucyl-2-(4-hydroxyphenyl)glycine hydrobromide] (H-Ile-[Hpg]-OH), the “% Stimulation (pyruvate oxidation)” value in assay [1] (Concentration 2 mM) is 10%. In addition, the “PDHa/PDHt ratio, compound” value in assay [2] (Dose 0.6 mmoles/kg p.o.) is on record as 0.72; in assay [2] (Dose 0.6 mmoles/kg s.c.), 0.86.
